Active and inactive are the calls of the source. The calls are words filed in the database; no cut-off is given here.
Legend:
[1] = biological target: Hemagglutinin (Influenza A virus (A/Puerto Rico/8/1934(H1N1)), UniProt P03452); experiment: Binding affinity to Influenza A virus (A/Puerto Rico/8/34) Hemagglutinin by surface plasmon resonance (SPR) assay
Influenza A virus [2] = experiment: Anti-viral activity against Influenza A virus H1N1 (A/WSN/33; WSN) infected in MDCK cells assessed as inhibition of virus cytopathic effect measured after 48 hrs by crystal violet staining based assay; type: functional
[3] = Cytotoxicity against human A549 cells assessed as cell viability measured after 48 hrs by MTT assay; type: toxicity, cell-based
Influenza A virus [4] = experiment: In vivo antiviral activity against Influenza A virus (A/Puerto Rico/8/34) infected in BALB/c mouse assessed as increase in mouse survival at 2.5 mg/kg, po once daily treated after 4 hrs of inoculation for 5 days; type: functional, organism-based; settings: time 5.0 day
[5] = biological target: Hemagglutinin (Influenza A virus (A/Puerto Rico/8/1934(H1N1))) (UniProt P03452); experiment: Blockade of Influenza A virus (A/Puerto Rico/8/34) Hemagglutinin-mediated membrane fusion in Vero cells expressing PR8 HA assessed as syncytium formation at pH 5 by quantitative membrane fusion assay; type: cell-based; settings: dose 5-40 µM
Sequence of Hemagglutinin (Influenza A virus (A/Puerto Rico/8/1934(H1N1))) (P03452 whole entry, the tested form may be a part): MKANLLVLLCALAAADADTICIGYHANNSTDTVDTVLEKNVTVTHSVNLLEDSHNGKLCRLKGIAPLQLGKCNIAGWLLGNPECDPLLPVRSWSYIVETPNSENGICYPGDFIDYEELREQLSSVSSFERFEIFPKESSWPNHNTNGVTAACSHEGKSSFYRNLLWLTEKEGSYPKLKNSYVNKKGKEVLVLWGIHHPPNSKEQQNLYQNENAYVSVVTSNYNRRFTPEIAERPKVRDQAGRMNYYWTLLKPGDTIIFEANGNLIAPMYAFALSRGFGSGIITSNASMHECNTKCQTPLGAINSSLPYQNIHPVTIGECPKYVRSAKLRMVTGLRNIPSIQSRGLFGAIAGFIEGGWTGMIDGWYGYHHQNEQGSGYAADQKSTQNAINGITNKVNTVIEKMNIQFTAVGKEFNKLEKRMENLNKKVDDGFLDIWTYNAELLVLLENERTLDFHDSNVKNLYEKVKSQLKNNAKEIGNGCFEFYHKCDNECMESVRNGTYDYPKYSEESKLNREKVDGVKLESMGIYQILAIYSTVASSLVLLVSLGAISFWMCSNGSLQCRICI

MDCK [6] = experiment: Reduction in NP protein expression in Influenza A virus (A/Puerto Rico/8/34) infected in MDCK cell at 40 uM after 60 mins by Western blot analysis; type: functional, cell-based
Influenza A virus [7] = experiment: Anti-viral activity against Influenza virus H3N2 (A/Aichi/2/68; Aichi) infected (at MOI = 3) in MDCK cell assessed as reduction in hemagglutinin titer using chicken RBC measured after 60 mins by hemagglutinin assay; type: functional, organism-based; settings: 1 h
Influenza A virus [8] = experiment: In vivo antiviral activity against Influenza A virus (A/Puerto Rico/8/34) infected in BALB/c mouse assessed as increase in mouse survival at 2.5 mg/kg, po once daily treated after 4 hrs of inoculation for 14 days relative to control; type: functional; settings: A/Puerto Rico/8/34, 336 h, time 14 day
Influenza A virus [9] = experiment: (§1) In vivo antiviral activity against Influenza A virus (A/Puerto Rico/8/34) infected in BALB/c mouse assessed as intact columnar epithelia in bronchiole without inflammatory cell infiltration at 5 mg/kg, po once daily treated after 4 hrs of inoculation for 4 days relative to control by HE staining based histopathological analysis; type: functional, organism-based
Influenza A virus [10] = experiment: Anti-viral activity against Influenza virus H3N2 (A/Aichi/2/68; Aichi) infected in MDCK cells assessed as inhibition of virus cytopathic effect measured after 48 hrs by crystal violet staining based assay; type: functional
[11] = Toxicity in BALB/c mouse infected with Influenza A virus (A/Puerto Rico/8/34) assessed as death at 2.5 mg/kg, po after 8 days; type: organism-based; settings: in vivo, 192 h, time 8 day
[12] = biological target: Hemagglutinin (Influenza A virus (A/Puerto Rico/8/1934(H1N1))) (UniProt P03452); experiment: Blockade of Influenza A virus (A/Puerto Rico/8/34) Hemagglutinin-mediated membrane fusion in Vero cells expressing PR8 HA assessed as syncytium formation at pH 5 and measured at 15 uM measured after 2 hrs by polykaryon assay; type: cell-based
[13] = Cytotoxicity against african green monkey Vero cells assessed as cell viability measured after 48 hrs by MTT assay; type: toxicity, cell-based; settings: chlorocebus sabaeus
[14] = Toxicity in BALB/c mouse infected with Influenza A virus (A/Puerto Rico/8/34) assessed as decrease in body weight at 2.5 mg/kg, po upto 8 days; type: organism-based; settings: in vivo, 192 h, time < 8 day
Influenza A virus [15] = experiment: Potency index, ratio of penindolone-IC50 to test compound IC50 for anti-viral activity against Influenza A virus (A/Puerto Rico/8/34) infected in MDCK cells; type: functional
Influenza A virus [16] = experiment: Anti-viral activity against Influenza A virus H1N1 (A/Virginia09/ATCC1/2009; Vir09) infected in MDCK cells assessed as inhibition of virus cytopathic effect measured after 48 hrs by crystal violet staining based assay; type: functional
Influenza A virus [17] = experiment: Anti-viral activity against Influenza A virus H1N1 (A/Puerto Rico/8/34) infected (at MOI = 3) in MDCK cell assessed as reduction in hemagglutinin titer using chicken RBC measured after 60 mins by hemagglutinin assay; type: functional, organism-based; settings: H1N1 A/Puerto Rico/8/34, MDCK, 1 h
Influenza B virus = experiment: Anti-viral activity against Influenza B virus strain (B/Hong Kong/5/72) infected in MDCK cells assessed as inhibition of virus cytopathic effect measured after 48 hrs by crystal violet staining based assay; type: functional
Influenza A virus [18] = experiment: In vivo antiviral activity against Influenza A virus (A/Puerto Rico/8/34) infected in BALB/c mouse assessed as decrease in pulmonary viral titers at 2.5 to 5 mg/kg, po once daily treated after 4 hrs of inoculation for 4 days relative to control; type: functional, organism-based; settings: dose 2.5-5 mg/kg, time 4.0 day
MDCK [19] = experiment: Reduction in HA2 protein expression in Influenza A virus (A/Puerto Rico/8/34) infected in MDCK cell after 60 mins by Western blot analysis; type: functional, cell-based; settings: dose 2.5-20 µM
[20] = Cytotoxicity against dog MDCK cells assessed as cell viability measured after 48 hrs by MTT assay; type: toxicity, cell-based, Canis lupus familiaris
Influenza A virus [21] = experiment: Anti-viral activity against Influenza H1N1 virus (A/Virginia09/ATCC1/2009; Vir09) infected (at MOI = 3) in MDCK cell assessed as reduction in hemagglutinin titer using chicken RBC measured after 60 mins by hemagglutinin assay; type: functional, organism-based; settings: H1N1 A/Virginia09/ATCC1/2009, dose 5-20 µM
[22] = biological target: Hemagglutinin (Influenza A virus (A/Puerto Rico/8/1934(H1N1))) (UniProt P03452); experiment: Inhibition of trypsin-mediated Influenza A virus (A/Puerto Rico/8/34) hemagglutinin protein digestion pretreated at 50 uM for 20 mins at pH 5 followed by treated with trypsin for 30 mins at pH 8.5 by SDS-PAGE/trypsin susceptibility (TS) assay
[23] = Selectivity index, ratio of CC50 for cytotoxicity against dog MDCK cells to IC50 for anti-viral activity against Influenza A virus (A/Puerto Rico/8/34 infected in MDCK cells; type: toxicity, cell-based; settings: read-out: Selectivity Index
MDCK [24] = experiment: Reduction in NS1 protein expression in Influenza A virus (A/Puerto Rico/8/34) infected in MDCK cell after 60 mins by Western blot analysis; type: functional, cell-based
[25] = biological target: Hemagglutinin (Influenza A virus (A/Puerto Rico/8/1934(H1N1))) (UniProt P03452); experiment: Blockade of Influenza A virus (A/Puerto Rico/8/34) Hemagglutinin-mediated membrane fusion in Vero cells expressing PR8 HA assessed as syncytium formation at pH 5 at 5 to 20 uM by quantitative membrane fusion assay; type: cell-based; settings: dose 5-20 µM
[26] = biological target: Hemagglutinin (Influenza A virus (A/Puerto Rico/8/1934(H1N1))) (UniProt P03452); experiment: Blockade of Influenza A virus (A/Puerto Rico/8/34) Hemagglutinin-mediated membrane fusion in Vero cells expressing PR8 HA assessed as syncytium formation at pH 5 and measured at 20 uM measured after 2 hrs by polykaryon assay; type: cell-based
Influenza A virus [27] = experiment: as §1, with “10” for “5”; type: functional, organism-based
Influenza A virus [28] = experiment: In vivo antiviral activity against Influenza A virus (A/Puerto Rico/8/34) infected in BALB/c mouse assessed as increase in mouse survival at 10 mg/kg, po once daily treated after 4 hrs of inoculation for 14 days relative to control; type: functional; settings: A/Puerto Rico/8/34, 336 h, time 14 day
[29] = Toxicity in BALB/c mouse infected with Influenza A virus (A/Puerto Rico/8/34) assessed as death at 10 mg/kg, po after 11 days; type: organism-based; settings: in vivo, 264 h, time 11 day
[30] = Toxicity in BALB/c mouse infected with Influenza A virus (A/Puerto Rico/8/34) assessed as decrease in body weight at 10 mg/kg, po upto 8 days; type: organism-based; settings: in vivo, 192 h, time < 8 day

Sequence of Hemagglutinin (Influenza A virus (A/Puerto Rico/8/1934(H1N1)), UniProt P03452) (P03452 whole entry): as the sequence (P03452 whole entry, the tested form may be a part) above

CCOC(=O)c1c(CSc2ccccc2)n(C)c2cc(Br)c(O)c(CN(C)C)c12 [UMIFENOVIR]
Kd [1]: 51.4 µM

CC(=O)c1cc(C)c(O)c(Cc2[nH]c3ccc(-c4c5ccccc5cc5ccccc45)cc3c2Cc2c(O)c(C)cc(C(C)=O)c2O)c1O
inhibition (INH) (Influenza A virus [2]): 5.6%
CC50 at 48 h [3]: 180 µM
Activity (Influenza A virus [4]): Active
inhibition [5]: Dose-Dependent Effect
inhibition (MDCK [6]): Active
IC50 (Influenza A virus [7]): < 10 µM
survival at 2.5 mg/kg (Influenza A virus [8]): 70%
Activity (Influenza A virus [9]): Active
inhibition (INH) (Influenza A virus [10]): 8.7%
Activity [11]: Toxic
inhibition [12]: Active
CC50 at 48 h [13]: 1350 µM
Activity [14]: Non-Toxic
Ratio IC50 (Influenza A virus [15]): 3.8
inhibition (INH) (Influenza A virus [16]): 13.5%
Kd [1]: 6.4 µM
IC50 (Influenza A virus [17]): < 5 µM
inhibition (INH) (Influenza B virus): 3.4%
Activity (Influenza A virus [18]): Active
inhibition (MDCK [19]): Dose-Dependent Effect
CC50 at 48 h [20]: > 300 µM
inhibition (Influenza A virus [21]): Dose-Dependent Effect
inhibition [22]: Active
selectivity ratio [23]: > 44.8
inhibition (MDCK [24]): Dose-Dependent Effect

CC(=O)c1cc(C)c(O)c(Cc2[nH]c3ccccc3c2Cc2c(O)c(C)cc(C(C)=O)c2O)c1O
inhibition [25]: Active
inhibition [26]: Active
Kd [1]: 8.4 µM
CC50 at 48 h [20]: > 300 µM
selectivity ratio [23]: > 11.8

CCOC(=O)C1=C[C@@H](OC(CC)CC)[C@H](NC(C)=O)[C@@H](N)C1 [OSELTAMIVIR]
Activity (Influenza A virus [27]): Active
survival at 10 mg/kg (Influenza A virus [28]): 80%
Activity [29]: Non-Toxic
Activity [30]: Toxic
CC50 at 48 h [20]: > 300 µM
selectivity ratio [23]: > 26.3

CC(=O)c1cc(C)c(O)c(Cc2[nH]c3ccc(-c4ccc5ncccc5c4)cc3c2Cc2c(O)c(C)cc(C(C)=O)c2O)c1O
CC50 at 48 h [20]: > 300 µM
selectivity ratio [23]: > 16.2

COc1ccc2cc(-c3ccc4[nH]c(Cc5c(O)c(C)cc(C(C)=O)c5O)c(Cc5c(O)c(C)cc(C(C)=O)c5O)c4c3)ccc2c1
CC50 at 48 h [20]: > 300 µM
selectivity ratio [23]: > 14.2
